Measured values from patent US20090099060A1, “Modulation of line-1 reverse transcriptase” (priority 2004, published 2009).
Entries after “also recorded” stand apart in the source; their conditions may differ.

Experiments:
Saos-2 cells = assay: Telomere length (PNA probe) and cell cycle (PI) by flow cytometry in AZT-treated Saos-2 cells; assay type: cell-based, human; details: Saos-2, AZT 0.2 μM, 14 days
Protocol: (§1) Telomere length in AZT treated and untreated cell lines was measured by flow cytometry with a telomere-specific peptide nucleic acid (PNA) probe^22,23. To determine cell cycle distribution, cells were stained with propidium iodide (PI)^22. […] AZT at the chosen concentration had no effect on telomere length or cell cycle distribution in the HeLa cells (not shown).
(§2) Cell lines: All cell lines used in this study were obtained from American Type Culture Collection (Rockville, Md.). The cells origins included osteosarcoma (Saos-2 and U-2 OS), liver ([…]) and uterine cervix (HeLa). Cells were cultured following ATCC recommendation. For treatment of the cells with AZT, the media was supplemented with 0.2 μM of 3′-azido-2′,3′-dideoxythymidine (Sigma)^28.
(§3) Telomere length measurement by flow cytometry: Cell were stained with telomere specific FITC conjugated (C3TA2)3 PNA (Applied Biosystems) probe and contrastained with 0.06 μg/ml PI as described^21.

HeLa cells = assay: Telomere length and cell cycle by flow cytometry in AZT-treated telomerase-positive HeLa cells; assay type: cell-based, human; details: AZT under the same conditions
Protocol: as §1, §2, §3

[1] = system: telomerase-positive tumors (WM1175 malignant melanoma or HUT292DM lung cancer); assay: Telomerase-positive tumors (WM1175 or HUT292DM cells) in immunodeficient mice treated with AZT; assay type: in vivo; details: AZT at the dose used for inhibiting the growth of the ALT cancer cells
Protocol: After induction of the tumors, mice in the experimental groups may be treated with AZT. Mice may be injected i.p. twice a day with solution of AZT in PBS with a total daily dose of 10 mg/kg. Mice in the control group may be injected with PBS. Alternatively, AZT at the same daily dose may be given in drinking water. […] As a separate set of controls, telomerase-positive tumors in nude mouse may be induced by injecting the immunodeficient mice with WM1175 (malignant melanoma) or HUT292DM (lung cancer) cells instead of the transformed IIICF/c fibroblast cells.

U-2 OS cells [2] = assay: Telomere length (PNA probe) and cell cycle (PI) by flow cytometry in nucleoside-analog-treated U-2 OS cells; assay type: cell-based, human
Protocol: as §1
Telomere length in untreated (FIG. 4a) and GCV treated cells (FIG. 4b) was measured by flow cytometry with a telomere-specific PNA probe as described above.
To determine cell cycle distribution, cells were stained with propidium iodide (PI).
as §2, §3

[3] = system: U-2 OS/ras-V12 s.c. tumors; assay: s.c. tumor growth from U-2 OS/ras-V12 cells in nude mice, AZT in drinking water; assay type: in vivo; details: AZT 2 mg/ml in drinking water from day zero
Text: Exemplary in vivo assays of anti-tumor efficacy of AZT using nude mice subcutaneous (s.c.) tumors grown from the U-2 OS human osteosarcoma cell lines (i.e., xenografts bearing mice) as models are described below.
Human cancerous cells needed for in vivo assays may be prepared, for example, as follows: Telomerase-negative, but ALT positive, U-2 OS human osteosarcoma cell lines are obtained from public sources such as ATCC. Cells are maintained in McCoy 5 media supplemented with 10% fetal calf serum at 37° C. in a humidified atmosphere of 5% CO2. […] Accordingly, activated ras-oncogene expression vector is introduced in near-confluent U-2 OS cells by Lipofectamine 2000% transfection according manufacturer's instructions. One day before transfection U-2 Os cells are seeded at a density 1×10^5 cells in a 6 well-plate. Plasmid pBABE-puro-ras-V12 (available publicly) is linearized by restriction digest with Sca I enzyme. The cells are transfected with the linearized construct and grown in culture. One day after the transfection, cells may be diluted. Then the cells are selected with puromycin ([…]) for 8 days. […]
In one embodiment, impairment of s.c. tumor growth or time to progression rather than decrease in size of an established tumor is assessed. […] Tumors are measured every 2-3 days. […] Tumor volume is calculated with formula 4/3πr^3, where r is the radius of the tumor.

U-2 OS cells [4] = assay: Bromodeoxyuridine (BdU) incorporation, rate of DNA synthesis in AZT-treated U-2 OS cells; assay type: cell-based, human; details: AZT for 10, 17 and 40 days
Protocol: Rate of DNA synthesis was determined by incorporation of 5-bromodeoxyuridine (BdU)^24.
as §2
Bromodeoxyuridine incorporation: Cell staining, for BdU incorporation, was performed using cells which were incubated with […] BrdU (Sigma) for 2.5 h, stained with BU-33 anti-BrdU monoclonal antibodies (Sigma) and FITC labeled Alexa 488 goat anti-mouse IgG (H+ L) (Fab′) fragments (Molecular Probes), contrastained with 50 μg/ml PI (Sigma) and analyzed by flow cytometry as described^24.

[5] = U-2 OS, GCV 0.3 μg/ml, 14 days, listed as ganciclovir

Cc1cn([C@H]2C[C@H](N=[N+]=[N-])[C@@H](CO)O2)c(=O)[nH]c1=O [AZT, 3′-azido-2′,3′-dideoxythymidine]
apoptosis (Saos-2 cells): massive apoptosis
cell cycle distribution (PI) (Saos-2 cells): G2 arrest; also recorded: changes in cell cycle
telomere length (telomere-specific PNA fluorescence) (Saos-2 cells): telomere shortening; also recorded: decrease in telomere length
cell cycle distribution (HeLa cells): no effect
telomere length (HeLa cells): no effect
inhibition of telomerase-positive tumors [1]: cannot be inhibited
DNA content (PI staining) compared to untreated cells (U-2 OS cells [2]; AZT treated cells at later stages of treatment): higher DNA content
treatment time after which changes in cell cycle distribution, DNA synthesis and telomere length could be detected (U-2 OS cells [2]; U-2 OS, AZT): 10 days
apoptosis (U-2 OS cells [2]; U-2 OS, AZT 0.2 μM, 14 days): massive apoptosis
cell cycle distribution (PI) (U-2 OS cells [2]; U-2 OS, AZT 0.2 μM, 14 days): G2 arrest; also recorded: changes in cell cycle
telomere length (telomere-specific PNA fluorescence) (U-2 OS cells [2]; U-2 OS, AZT 0.2 μM, 14 days): telomere shortening; also recorded: decrease in telomere length
telomere length over time of treatment (U-2 OS cells [2]; U-2 OS, AZT for 10, 17 and 40 days): progressive telomere shortening
tumor development [3]: remain tumor free
rate of DNA synthesis (BdU incorporation) (U-2 OS cells [4]): decrease in DNA synthesis

Nc1nc(O)c2ncn(COC(CO)CO)c2n1 [GCV, ganciclovir]
apoptosis (U-2 OS cells [2]; U-2 OS, GCV 0.3 μg/ml, 14 days): massive apoptosis
cell cycle distribution (PI) (U-2 OS cells [2]; U-2 OS, GCV 0.3 μg/ml, 14 days): G2 arrest
telomere length (telomere-specific PNA probe) (U-2 OS cells [2]; U-2 OS, GCV 0.3 μg/ml, 14 days): telomere shortening
cell cycle distribution (PI) (U-2 OS cells [2]; [5]): changes in cell cycle
telomere length (telomere-specific PNA probe) (U-2 OS cells [2]; [5]): decrease in telomere length
